Test: Recrystallization of methionine in the presence of additives (procedure of Example 1): amount of foam and bulk density
Format: physicochemical
Conditions: bulk density of dried methionine; additive concentration 400 ppm
Method: 60 g of methionine, 305 g of water and 35 g of crude methionine filtrate were introduced into a flask and circulated via a heat exchanger by pumping at a temperature of 40° C. As a result of the potassium carbonate present in the crude methionine filtrate, the potassium ion concentration was ca. 7 g/kg. A solution, heated to 90° C., of 150 g of methionine in 990.5 ml of water and 109.5 g of crude methionine filtrate was added to this suspension at a rate of 18 ml/min, during which the temperature of the initial charge of suspension was kept at 40° C. After adding 650 ml of the hot solution, 500 ml of suspension were removed and then a further 500 ml of the hot solution were metered in at a rate of 18 ml/min. The resulting suspension was discharged, the amount of foam was determined, and the methionine was filtered off and washed with 300 ml of acetone. After drying the methionine, the bulk density was determined.
The recrystallization experiments were carried out in the presence of the following additives, the stated concentration being established by adding the additive to both starting solutions/suspensions. The concentration data give the total active ingredient content of the additive without water based on the total mass of the solution or suspension. Additive 1 was an aqueous mixture of antifoam and crystallization additive according to EP […] […]

Bulk density: 616 g/L
Substance: polyethoxylated (20 EO) sorbitan tristearate [Additive 24]
